In US8389739B1, “Modulators of retinoid-related orphan receptor gamma” (Orphagen Pharmaceuticals, priority 2006, dated 2013):

Legend:
Format in all cases: cell-based
RORα (mRORα) = molecular target: T1, RORα (mRORα) (Mus musculus, UniProt P51448); assay: Transcriptional assay of RORα as GAL4 hybrid; conditions: same format as the GAL4-RORγ assay
T1 construct: mRORα (NR1F1, aa 266-523); expressed in transfected cells; host or cells: CHO cells, transient transfection
Method: (§1) This example also describes several additional tests that were commonly performed to confirm the authenticity of a hit to RORγ. These tests also verified the validity of the transcriptional and biochemical assays used. […] In some cases, close analogs of a confirmed hit were obtained by synthesis or purchase from a commercial source. The series of compounds related to the confirmed hit was then tested in the biochemical and transcriptional assays. The rank order of the potency of the compounds was then compared. […] The data imply in turn that the compounds are binding to the same binding pocket. […]
(§2) Four hours after transfection, cells were dislodged with trypsin and seeded into a 384-well plate at 8,000 cells/well using a Titertek Multidrop 384. […] After incubation for 2 hours at 37 degrees centigrade, the conversion of resazurin to resorufin was measured by fluorescence (excitation at 570 nm and emission at 615 nm). […] Percent viability was determined as 2 hour fluorescence, minus background at t=0 hours, normalized to DMSO controls. […] Luminescence is detected with a Victor 2-V plate reader (Perkin-Elmer) and normalized to luciferase activity of DMSO control wells alone.

RORβ (human RORβ) = molecular target: T2, RORβ (human RORβ) (Homo sapiens, UniProt Q92753); assay: Transcriptional assay of RORβ as GAL4 hybrid; conditions: same format as the GAL4-RORγ assay
T2 construct: human RORβ (NR1F2, aa 201-459); expressed in transfected cells; host or cells: CHO cells, transient transfection
Method: as §1, §2

[1] = test system: IL-17 release and TH-17 cells in lymph node cultures; assay: Lymph node cell cultures from PLP-immunized SJL/J mice, IL-17 ELISA and Th-17 FACS
Method: FIGS. 13A-F. IL-17 levels in lymph node cells from mice immunized with myelin-derived peptides respond to cognate peptide antigens, IL-23 and RORγ ligands. (FIG. 13A) SJL/J mice were immunized by complete Freund's adjuvant (CFA) only or by Proteolipid Protein residues 139-151 (PLP139-151) emulsified in CFA. Lymph nodes were cultured for 3 days in with or without 40 μg/ml PLP in the presence or absence of OR-885. Culture media were analyzed by ELISA for IL-17. (FIGS. 13B-C) Lymph node cells from PLP-immunized SJL/J mice were cultured as before with the addition of 10 ng/ml IL-23 and 3 μM compounds. At the end of 1 day or 3 days in culture, Th-17 (CD4^+CD8^−IL17^+) cell frequency was measured by FACS (FIG. 13B) and compared to IL-17 levels in culture media (FIG. 13C). (FIGS. 13D-F) Lymph node cells from MOG35-55 immunized C57BL/6 mice were cultured for 3 days with 30 μg/ml MOG and/or 10 ng/ml IL-23. RORγ ligands were not added (FIG. 13D), or added at the beginning of the culture at a single concentration (FIG. 13E, 1 μM) or in multiple doses (FIG. 13F).
FIG. 14. Inhibition of IL-17 release in mouse lymph node cultures by the RORγ antagonist OR-885 can be reversed by the RORγ agonist OR-12872. The lymph node cells were culture in the presence of 10 ng/mL IL-23 and 40 μg/mL PLP for three days under identical conditions to FIG. 13 and IL-17 in the culture supernatant was measured by ELISA.
ELISA kits for mouse IL-17 and human IL-17 were from eBioscience (San Diego, Calif.). ELISA assays were performed following the manufacturer's protocol. Certain samples were diluted 20-fold to avoid maximization of enzymatic signals. For mouse IL-22 ELISA, antibodies and standards were from Antigenix America (Huntington Station, N.Y.) and accessory components were from eBioscience. The IL-22 assay protocol was similar to that of the IL-17 assays. […]

T1 sequence (P51448 266-523): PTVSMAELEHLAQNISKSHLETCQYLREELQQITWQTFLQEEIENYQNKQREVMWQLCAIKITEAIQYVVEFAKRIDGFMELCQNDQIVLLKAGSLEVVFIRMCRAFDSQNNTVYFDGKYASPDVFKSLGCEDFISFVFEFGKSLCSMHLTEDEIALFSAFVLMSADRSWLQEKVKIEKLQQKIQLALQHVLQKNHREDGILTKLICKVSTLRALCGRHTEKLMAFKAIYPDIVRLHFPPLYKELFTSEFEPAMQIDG
T2 sequence (Q92753 212-470): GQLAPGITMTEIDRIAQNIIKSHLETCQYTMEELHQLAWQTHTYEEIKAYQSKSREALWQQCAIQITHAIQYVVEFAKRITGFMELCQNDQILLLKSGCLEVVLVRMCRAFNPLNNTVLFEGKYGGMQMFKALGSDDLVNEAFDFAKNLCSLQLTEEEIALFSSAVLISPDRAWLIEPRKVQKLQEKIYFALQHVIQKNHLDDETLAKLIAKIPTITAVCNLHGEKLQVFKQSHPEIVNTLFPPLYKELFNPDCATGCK

SMILES	effect on the transcription of RORα (RORα (mRORα))	effect on the transcription of RORβ (RORβ (human RORβ))	induction of TH-17 cells (as a percentage of total live cells) ([1]; PLP, 10 ng/ml IL-23, 3 μM compounds (FIG. 13B))	PLP-stimulated release of IL-17 ([1]; lymph node cultures, 40 μg/ml PLP, 3 days)	reversal of antagonist suppression of IL-17 release ([1]; 10 ng/mL IL-23 and 40 μg/mL PLP, three days (FIG. 14))
O=S(=O)(c1ccccc1)N(CC(F)(F)F)c1ccc(C(O)(C(F)(F)F)C(F)(F)F)cc1 [Compound T0901317, N-(2,2,2-Trifluoro-ethyl)-N-[4-(2,2,2-trifluoro-1-hydroxy-1-trifluoromethyl-ethyl)-phenyl]-benzenesulfonamide, reference compound]	no effects	no effects			
C[C@@H]1CC[C@@]2(OC1)O[C@H]1C[C@H]3[C@@H]4CC[C@H]5C[C@@H](O)CC[C@]5(C)[C@H]4C[C@@H](O)[C@]3(C)[C@H]1[C@@H]2C [OR-885, 5α,20α, 22α, 25D-SPIROSTAN-3β, 12β-DIOL]			block	inhibited	
CCN(c1ccc(C(O)(C(F)(F)F)C(F)(F)F)cc1)S(=O)(=O)c1ccc([N+](=O)[O-])cc1 [OR-1050, N-Ethyl-4-nitro-N-[4-(2,2,2-trifluoro-1-hydroxy-1-trifluoromethyl-ethyl)-phenyl]-benzenesulfonamide]	no effects	no effects			
COC(C)CCC(C)C1CCC2C3CC(O)C4CC(O)CCC4(C)C3CCC12C (stereo not shown) [OR-12872, 17-(4-Methoxy-1-methyl-pentyl)-10,13-dimethyl-hexadecahydro-cyclopenta[a]phenanthrene-3,6-diol]					reverses the suppressive effects of OR-885 on IL-17 release
